Patent US10076505B2, “Inhalation formulations of Treprostinil” (priority 2003, dated 2018)
“And” between values parts separate entries of the source, which are not always exact repeats. Identical values can stand only once.

What was measured:
digital ischemic lesions [1] = experiment: Subcutaneous Treprostinil in scleroderma patients with digital ischemic lesions (Example VII); format: in vivo, human; conditions: continuous subcutaneous infusion, 12 weeks, increasing dose
Method: Scleroderma patients having at least one lesion (i.e., small sore or area of tissue gangrene) present on a hand or finger are dosed with increasing amounts of Treprostinil over 12 weeks. The medication is delivered by a small pump that is connected to a catheter placed under the skin. In this manner, increasing dosages of Treprostinil are administered to patients by chronic continuous subcutaneous infusion. Specifically, a 1.0 mg/mL formulation of Treprostinil sodium) (REMODULIN®) is administered subcutaneously using a standard micro-infusion, positive-pressure infusion pump designed for subcutaneous drug delivery (Mini-Med). Patients receive an initial dose of 2.5 ng/kg/min of study drug. […] After that, the dose is raised by 2.50 ng/kg/min each week until not tolerated or once a target dose is reached. Dosing is increased weekly unless not tolerated by the patient. […] One example of a target dose is 15 ng/kg/min. The minimum dose is usually not less than 0.625 ng/kg/min.

digital ischemic lesions [2] = experiment: Study of Treprostinil for digital ischemic lesions in patients with systemic sclerosis (Example VIII); format: in vivo, human
Method: This study involved 12 subjects with diffuse or limited scleroderma with at least one DIL that had been present for 2 months or more (Table 1). Subjects who completed the study were treated for 12 weeks with Treprostinil and followed for another 8 weeks after drug discontinuation (FIG. 1). […] Assessments were performed at baseline, weeks 2, 6, 12, 16, and 20. At each visit, the largest (target) lesion and other prominent DIL were measured by recording the largest diameter of the lesions. DIL were counted and photographed. Patient and physician global assessment of ulcers as well as patient assessment of disability from DIL were measured using visual analogue scales (VAS) at each visit.

critical limb ischemia = experiment: Open-label study of subcutaneous treprostinil in critical limb ischemia (Example X); format: in vivo, human
Source text: The planned enrollment was ten patients. All patients were to have Fontaine Stage III-IV or Rutherford Class 4-6 disease and ankle brachial indexes (ABI) from 0-0.55 in the most affected limb or the limb containing the reference ischemic wound for wound healing assessments. […] Any condition or abnormal laboratory value which, based on information in the treprostinil package insert, would constitute an unacceptable risk to the patient's safety, also was an exclusion criterion. Patients could not have been in an investigational trial within the past 30 days or been a non-responder to chronic prostanoid treatment in the past 30 days.
After the completion of baseline assessments, treprostinil therapy was initiated in the clinic. […] Patients and/or a caregiver were trained to administer treprostinil on an outpatient basis using an ambulatory subcutaneous infusion pump (Minimed, Sylmar, Calif., Model 407C). Each patient was to be initiated at a dose of 2.5 ng/kg/min or lower, with the dose titrated based on tolerability. Dose increases were to be 1.25-2.5 ng/kg/min per week. The maximum allowed dose was 15 ng/kg/min and the minimum allowed dose was 0.625 ng/kg/min. The patients were instructed to change the subcutaneous infusion site every three days.
Patients returned to the clinic for assessments at Weeks 2, 6, and 12. Treprostinil treatment was terminated by gradually decreasing the infusion rate (over a period of 1-4 hours, as clinically indicated) after the Week 12 visit assessments were completed.
Safety was assessed in all patients using adverse event (AEs) and physical examination findings. Signs and symptoms of CLI or worsening CLI were not considered to be AEs unless found to be different in causality, intensity, or frequency.
Rest pain was assessed in all patients using a visual analog scale (VAS) for rest pain. The patients were asked to rate their leg pain on a scale of 0-10 with 0 reflecting no pain and 10 reflecting the worst pain. The scale was printed and the patients were asked to place a mark on the number that reflected their pain experience. Patients were asked to rate the worst pain they had experienced since the previous assessment and their average pain during that time frame. Analgesic medication use was assessed by the investigator as unchanged, increased, decreased, or discontinued.
Wound assessments were to be conducted in patients who had at least one ischemic wound at baseline. If the patient had multiple ischemic wounds, then one or two (usually the largest or most severe wounds) were be selected as reference wounds. The selected wound(s) was photographed for documentation. When possible, the outside edge of the wound(s) was traced for area measurement. The tracings were used to calculate wound area by measuring the length and width of the wound. Not all wounds were of the nature that tracings were possible for example, wounds between toes or on the heel with extensive tissue loss were not traced. These wounds were described and photographed.
In patients who had wounds other than those chosen as reference wounds, the overall status (i.e., worse, the same, improved, or healed) of each additional wound also was documented at each study visit. Any new wounds that occurred during the study also were carefully documented.

[3] = system: human pulmonary arterial smooth muscle cells; conditions: cited from earlier work
[4] = system: human alveolar macrophages; conditions: cited from earlier work
[5] = individual patients 1-10 (one table line each), versus baseline pain medication, listed as treprostinil

Compound: CCCCC[C@H](O)CC[C@@H]1[C@H]2Cc3cccc(OCC(=O)O)c3C[C@H]2C[C@H]1O [UT-15, 9-deoxy-2′,9-alpha-methano-3-oxa-4,5,6-trinor-3,7-(1′,3′-interphenylene)-13,14-dihydro-prostaglandin F1]
- lesions present before treatment (digital ischemic lesions [1]): reduction in the number, size and severity
- new lesions associated with scleroderma (digital ischemic lesions [1]): fewer new lesions
- physician global assessment of DIL severity, average improvement (digital ischemic lesions [2]; after 12 weeks of therapy): 60%
- patients who developed new ulcers during the 8-week follow-up period after drug discontinuation (digital ischemic lesions [2]; after drug discontinuation): two of three
- new ulcers while receiving continuous therapy (digital ischemic lesions [2]; any patients): No new ulcers
- subjective measures of severity of DIL (patient and physician global assessment, DIL disability VAS) (digital ischemic lesions [2]; by week 6, all five subjects): marked improvements
- DIL disability VAS score, average improvement (digital ischemic lesions [2]; by week 12): 77%
- patient global assessment, average improvement (digital ischemic lesions [2]; by week 12): 89%
- average decrease in the size of baseline DIL (digital ischemic lesions [2]; continuous sc infusion, 12 weeks): 65%
- target lesions (digital ischemic lesions [2]; four subjects who completed 12 weeks of active therapy, sc infusion up to 15 ng/kg/min): improved in all patients
- subjects unable to complete the study due to intolerable injection site pain (digital ischemic lesions [2]; of 12 subjects): five
- subjects with complete resolution of their target lesions (digital ischemic lesions [2]; of the four subjects who completed 12 weeks): three
- wounds during the twelve weeks of drug treatment (critical limb ischemia; Patient 3): remained stable
- average rest pain score (critical limb ischemia; Patient 3, 7 at baseline): 4
- worst rest pain score (critical limb ischemia; Patient 3, reduced from 8): 4
- reduction in average rest pain (critical limb ischemia; baseline to week 12): 58%
- reduction in the worst rest pain (critical limb ischemia; baseline to week 12): 64%
- relation of SAEs to treprostinil (critical limb ischemia; cholecystectomy, worsening congestive heart failure): unlikely to be related
- pain relief (critical limb ischemia; conclusion of study): pain relief in all patients
- Pain Medication Consumption Week 2 (critical limb ischemia; [5]): No change (5×) and Less (4×) and PERCOCET ®
- Pain Medication Consumption Week 6 (critical limb ischemia; [5]): Less (5×) and Increased and No change (2×) and None and Discontinued
- Pain Medication Consumption Week 12 (critical limb ischemia; [5]): Darvocet and PERCOCET ® and None (2×) and No change (4×)
- patients who discontinued drug prematurely (critical limb ischemia; of ten patients): Two
- patients with complete healing of their wounds (critical limb ischemia; of ten patients): Three
- patients with diarrhea (critical limb ischemia; of ten patients): one
- patients with mild headache (critical limb ischemia; of ten patients): one
- patients with mild jaw pain (critical limb ischemia; of ten patients): Two
- week of complete wound closure (critical limb ischemia; patient 5, 15 ng/kg/min): 6 week
- week of complete resolution of rest pain (critical limb ischemia; patient 7, 7.5 ng/kg/min): 6 week
- week of complete wound closure (critical limb ischemia; patient 7, 7.5 ng/kg/min): 12 week
- week of complete resolution of ischemic rest pain (critical limb ischemia; patient 10, 15 ng/kg/min): 2 week
- week of complete wound closure (critical limb ischemia; patient 10, 15 ng/kg/min): 12 week
- new wounds during the trial (critical limb ischemia; ten patients): No patient developed a new wound
- serious adverse events (SAEs) (critical limb ischemia; ten patients): two
- most common side effect (critical limb ischemia; ten patients, sc infusion up to 15 ng/kg/min): infusion site pain
- patients switched to a non-sedating, non-narcotic pain medication (critical limb ischemia; week 12): one
- patients with complete pain relief who discontinued all pain medications (critical limb ischemia; week 12): two
- patients with increased consumption of pain medication (critical limb ischemia; week 12): one
- patients with medication usage unchanged from baseline (critical limb ischemia; week 12): 4 patients
- patients with reduced pain medication consumption (critical limb ischemia; week 12): three
- average rest pain, mean VAS (0-10) (critical limb ischemia; week 12, baseline mean 7.1): 2.4
- worst rest pain, mean VAS (0-10) (critical limb ischemia; week 12, baseline mean 8.4): 2.5
- proliferation of human pulmonary arterial smooth muscle cells [3]: inhibits proliferation
- inflammatory cytokine (tumor necrosis factor-α, interleukin-1β, interleukin-6, GM-CSF) secretion and gene expression [4]: inhibits
